Results as given in patent US20110269763A1, “CRTH2 receptor ligands for medicinal uses” (7TM Pharma A/S, priority 2004, published 2011).

Experiments:
human CRTH2 [1] = target: T1, human CRTH2 (Homo sapiens, UniProt Q9Y5Y4, V204A); experiment: Receptor binding assay: [3H]PGD2 competition binding on whole COS-7 cells transiently transfected with CRTH2 (also stable HEK293 cells); set-up: expressed in transfected cells; host or cells: COS-7 (transient, calcium phosphate); conditions: competition with 0.1 nM [3H]PGD2, whole cells, 3 h at 4° C.
T1 sequence (Q9Y5Y4 1-395 V204A): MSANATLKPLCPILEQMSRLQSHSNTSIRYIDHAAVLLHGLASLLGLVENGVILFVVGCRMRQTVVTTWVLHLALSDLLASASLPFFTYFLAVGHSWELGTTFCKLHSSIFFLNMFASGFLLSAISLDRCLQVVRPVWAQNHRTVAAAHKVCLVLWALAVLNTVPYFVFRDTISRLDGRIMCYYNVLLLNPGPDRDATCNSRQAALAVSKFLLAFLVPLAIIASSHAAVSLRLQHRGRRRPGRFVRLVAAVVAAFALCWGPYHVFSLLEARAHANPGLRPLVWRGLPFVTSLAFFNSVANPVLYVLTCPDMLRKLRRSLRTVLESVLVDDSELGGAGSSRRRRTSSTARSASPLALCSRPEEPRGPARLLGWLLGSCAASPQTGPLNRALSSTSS
In short: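 Whole COS-7 cells transiently transfected with human CRTH2 (calcium phosphate), or stable HEK293 cells, competed against 0.1 nM [3H]PGD2 in HBSS/10 mM HEPES with 1% DMSO, 3 h at 4 °C. Nonspecific binding with 10 μM PGD2; scintillation counting, duplicates. IC50 from curve fitting.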

human CRTH2 [2] = target: T1, human CRTH2; experiment: Functional antagonist BRET assay on HEK293 cells stably expressing human CRTH2-Rluc and GFP2-β-arr2; assay type: cell-based; set-up: expressed in transfected cells; conditions: BRET, antagonist incubated 15 minutes prior to agonist; read-out: Antag. IC50
In short: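 Cells (2×10^6/mL in D-PBS with glucose) were preincubated 15 min with antagonist at 1% DMSO, then agonist and DeepBlueC were co-injected. Emission at 400 and 515 nm was read 5 s later, and the mBRET ratio (515/400 nm) was used to derive IC50 from concentration–response curves.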

Row | Molecule | IC50 (human CRTH2 [1]) [nM] | IC50 (human CRTH2 [2]) [nM]
1 | O=C(O)COc1ccc(Br)cc1CN1CC(=O)N(Cc2ccc(Cl)cc2)C1=O [D139, 4-Bromo-2-[3-(4-chlorobenzyl)-2,4-dioxoimidazolidin-1-ylmethyl]phenoxyacetic acid] | < 500 | < 500
2 | O=C(O)COc1ccc(Br)cc1CN1CC(=O)N(CCc2ccccc2)C1=O [D140, 4-Bromo-2-(2,4-dioxo-3-phenethylimidazolidin-1-ylmethyl)phenoxyacetic acid] | < 500 | 500 to 5000
3 | O=C(O)COc1ccc(Br)cc1CC1SC(=O)N(Cc2ccc(Cl)cc2)C1=O (stereo not shown) [D141, 4-Bromo-2-[3-(4-chlorobenzyl)-2,4-dioxothiazolidin-5-ylmethyl]phenoxyacetic acid] | < 500 | < 500
4 | Cc1ccc(CN2C(=O)SC(Cc3cc(Br)ccc3OCC(=O)O)C2=O)cc1 (stereo not shown) [D142, 4-Bromo-2-[3-(4-methylbenzyl)-2,4-dioxothiazolidin-5-ylmethyl]phenoxyacetic acid] | < 500 | < 500
5 | O=C(O)COc1ccc(Br)cc1CC1SC(=O)N(CC(=O)c2ccc(Cl)cc2)C1=O (stereo not shown) [D143, 4-Bromo-2-{3-[2-(4-chlorophenyl)-2-oxoethyl]-2,4-dioxothiazolidin-5-ylmethyl}phenoxyacetic acid] | < 500 | < 500
6 | O=C(O)COc1ccc(Br)cc1CC1SC(=O)N(Cc2cccc(Cl)c2)C1=O (stereo not shown) [D144, 4-Bromo-2-[3-(3-chlorobenzyl)-2,4-dioxothiazolidin-5-ylmethyl]phenoxyacetic acid] | < 500 | < 500
7 | O=C(O)COc1ccc(Br)cc1CC1SC(=O)N(Cc2ccncc2)C1=O (stereo not shown) [D145, 4-Bromo-2-(2,4-dioxo-3-pyridin-4-ylmethylthiazolidin-5-ylmethyl)phenoxyacetic acid] | < 500 | < 500
8 | CC1(Cc2cc(Br)ccc2OCC(=O)O)SC(=O)N(Cc2ccc(Cl)cc2)C1=O (stereo not shown) [D146, 4-Bromo-2-[3-(4-chlorobenzyl)-5-methyl-2,4-dioxothiazolidin-5-ylmethyl]phenoxyacetic acid] | < 500 | < 500
9 | O=C(O)COc1ccccc1C=NNC(=O)COc1ccc(Cl)cc1Cl [D149] | < 500 | < 500
10 | O=C(O)COc1ccc(Br)cc1C=NNc1cccc2cccnc12 [D150] | < 500 | > 5000
11 | O=C(O)COc1ccc(Br)cc1C=NNc1ccccn1 [D151] | < 500 | > 5000
12 | O=C(O)COc1ccc(Br)cc1C=NNc1nncc(-c2ccccc2)n1 [D152] | < 500 | 500 to 5000
13 | COc1ccc(-c2cnnc(NN=Cc3ccccc3OCC(=O)O)n2)cc1 [D153] | 500 to 5000 | > 5000
14 | O=C(O)COc1ccccc1C=NNC(=O)c1ccc2ccccc2c1O [D154] | < 500 | < 500
15 | O=C(O)COc1ccccc1C=NNC(=O)c1ccnc(-c2ccccc2)c1 [D155] | < 500 | 500 to 5000
16 | O=C(O)COc1ccccc1C=NNC(=O)CSc1nnc(-c2ccc(Cl)cc2)n1-c1ccccc1 [D156] | < 500 | 500 to 5000
17 | {4-Bromo-2-[1-(4-bromo-2-chlorophenyl)-1H-pyrazole-4-carbonyl]phenoxy}acetic acid [D67] | < 500 | < 500
